Measurements reported in patent US20060074108A1, “Matrix metalloprotease (MMP) inhibitors and their application in cosmetic and pharmaceutical composition” (Bioderm Research, priority 2004, published 2006).

What was measured:
[1] = tested on: TRP-2; assay: tyrosinase enzyme based model: inhibition of color formation from the action of TRP-2 on tyrosine, spectrophotometric rate kinetics; format: biochemical; settings: TRP-2 model extended as predictive to MMP-2 and MMP-9 inhibition, wound healing application
Text: It is based on the inhibition of a tyrosinase enzyme based model system, for example Canters et al., “Kinetic and paramagnetic NMR investigations of the inhibition of Streptomyces antibioticus tyosinase”, Journal of Molecular Catalysis, B: Enzymatics, vol. 8, 27-35 (2000). Tyrosinase is a copper-based monooxygenase enzyme that catalyzes the hydroxylation of monophenols (hydroxybenzenes) and the oxidation of ortho-diphenols to ortho-quinones. The active-site of tyrosinase is known to contain two copper ions (CuA and CuB). […] The regions around these copper-binding ligands are well conserved. Moreover, the distance between these two copper ions is […] [(van Amsterdam et al., Angewandte Chemie, 42: 62-64 (2003); Bubacco et al., J. Biol. Chem., 181-194 (2003)]. At least two proteins related to tyrosinase are known to exist in mammals, and include TRP-1, which is responsible for the conversion of 5,6-dihydroxyindole-2-carboxylic acid (DHICA) to indole-5,6-quinone-2-carboxylic acid (IQCA) or indole-5,6-quinone (IQ); and TRP-2, which is the melanogenic enzyme DOPAchrome tautomerase that catalyzes the conversion of DOPAchrome to DHICA. TRP-2 differs from tyrosinases and TRP-1 in that it binds two zinc ions instead of copper. Other proteins that belong to this family are plant polyphenol oxidases (PPO), which catalyze the oxidation of mono- and ortho-diphenols to ortho-diquinone. […] The colorless tyrosine is converted into yellow/orange colored ortho-diquinone of tyrosine, which is spectrophotometrically quantitated and its rate kinetics thus established.

[2] = target: T1, MMP-1 (Homo sapiens, UniProt P03956); settings: in words; cited from earlier work
T1 sequence (P03956 100-469): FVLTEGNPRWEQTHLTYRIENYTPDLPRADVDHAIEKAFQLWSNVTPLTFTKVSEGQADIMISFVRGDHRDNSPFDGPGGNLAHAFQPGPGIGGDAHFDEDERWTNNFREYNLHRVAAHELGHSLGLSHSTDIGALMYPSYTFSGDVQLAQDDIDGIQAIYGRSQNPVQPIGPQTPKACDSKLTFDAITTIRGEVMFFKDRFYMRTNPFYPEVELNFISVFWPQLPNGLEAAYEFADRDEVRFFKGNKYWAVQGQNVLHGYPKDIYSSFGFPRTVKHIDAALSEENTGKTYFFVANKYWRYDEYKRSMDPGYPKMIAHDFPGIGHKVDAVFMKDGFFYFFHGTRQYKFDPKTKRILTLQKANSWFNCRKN

[3] = target: MMP-13 (Homo sapiens, UniProt P45452); settings: in words; cited from earlier work
[4] = target: MMP-9 (Homo sapiens, UniProt P14780); settings: in words; cited from earlier work
Sequence of MMP-9 (P14780 94-707, species assumed): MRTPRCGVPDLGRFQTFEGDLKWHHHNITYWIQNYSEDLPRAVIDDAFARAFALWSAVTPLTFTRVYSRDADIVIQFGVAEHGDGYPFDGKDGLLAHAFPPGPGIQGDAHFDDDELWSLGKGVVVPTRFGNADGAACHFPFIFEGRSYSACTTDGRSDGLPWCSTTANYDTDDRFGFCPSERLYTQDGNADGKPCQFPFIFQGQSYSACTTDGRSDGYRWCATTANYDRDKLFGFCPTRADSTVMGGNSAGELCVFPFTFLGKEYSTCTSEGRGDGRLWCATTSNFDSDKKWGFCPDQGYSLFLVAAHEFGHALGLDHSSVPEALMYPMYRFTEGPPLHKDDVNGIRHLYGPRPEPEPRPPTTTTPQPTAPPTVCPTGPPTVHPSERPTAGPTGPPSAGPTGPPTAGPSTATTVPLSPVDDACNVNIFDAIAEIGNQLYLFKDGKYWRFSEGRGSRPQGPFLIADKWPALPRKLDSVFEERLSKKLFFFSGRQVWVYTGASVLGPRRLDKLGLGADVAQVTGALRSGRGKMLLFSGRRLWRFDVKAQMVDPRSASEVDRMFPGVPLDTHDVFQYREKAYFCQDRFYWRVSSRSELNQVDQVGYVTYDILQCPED

Compound: COc1ccc(C(C)=O)c(O)c1 [2-Hydroxy-4-methoxyaceophenone]
- order of efficacy (acetophenones) [1]: 2,4-Dihydroxyacetophenone>2-Hydroxy-4-methoxyaceophenone >>>Arbutin

Compound: O=C(NCCCCN1CCOCC1)c1cc2ccccc2o1 [CL-82198]
- activity against MMP-1 [2]: complete lack of activity
- inhibition of MMP-13 [3]: weak inhibition
- activity against MMP-9 [4]: complete lack of activity

Compound: COc1ccc(C(C)=NO)c(O)c1 [2-Hydroxy-4-methoxyaceophenone Oxime]
- order of efficacy (oxime derivatives) [1]: 2,4-Dihydroxyacetophenone Oxime>2-Hydroxy-4-methoxyaceophenone Oxime

Compound: CC(=NO)c1ccc(O)cc1O [2,4-Dihydroxyacetophenone Oxime]
- order of efficacy (oxime derivatives) [1]: 2,5-Dihydroxyacetophenone Oxime>2,4-Dihydroxyacetophenone Oxime>2-Hydroxy-4-methoxyaceophenone Oxime

Compound: CC(=O)c1cc(O)ccc1O [2,5-Dihydroxyacetophenone]
- order of efficacy (acetophenones) [1]: 2,6-Dihydroxyacetophenone>2,5-Dihydroxyacetophenone>2,4-Dihydroxyacetophenone

Compound: OC[C@H]1O[C@@H](Oc2ccc(O)cc2)[C@H](O)[C@@H](O)[C@@H]1O [Arbutin, reference compound]
- order of efficacy (acetophenones) [1]: 2-Hydroxy-4-methoxyaceophenone >>>Arbutin

Compound: CC(=O)c1ccc(O)cc1O [2,4-Dihydroxyacetophenone]
- order of efficacy (acetophenones) [1]: 2,5-Dihydroxyacetophenone>2,4-Dihydroxyacetophenone>2-Hydroxy-4-methoxyaceophenone

Compound: Cc1cc(C)c(N(Cc2ccccc2)S(=O)(=O)c2ccc(OCCNC(=O)c3cc4ccccc4o3)cc2)c(C(=O)NO)c1 [WAY-170523]
- inhibition of MMP-13 [3]: potent

Compound: CC(=O)c1c(O)cccc1O [2,6-Dihydroxyacetophenone]
- order of efficacy (acetophenones) [1]: 2,6-Dihydroxyacetophenone>2,5-Dihydroxyacetophenone

Compound: CC(=NO)c1c(O)cccc1O [2,6-Dihydroxyacetophenone Oxime]
- order of efficacy (oxime derivatives) [1]: 2,6-Dihydroxyacetophenone Oxime>2,5-Dihydroxyacetophenone Oxime

Compound: CC(=NO)c1cc(O)ccc1O [2,5-Dihydroxyacetophenone Oxime]
- order of efficacy (oxime derivatives) [1]: 2,6-Dihydroxyacetophenone Oxime>2,5-Dihydroxyacetophenone Oxime>2,4-Dihydroxyacetophenone Oxime
